Measured values from patent US8653100B2 (AbbVie Inc., priority 2008, dated 2014).
Counter-ions that a name gives are not always drawn. Like-named read-outs stand apart in the source and are kept apart here.

Experiments:
human GlyT1c transporter = human GlyT1c transporter (Homo sapiens (Human), UniProt P48067); assay: Radioligand binding assay using recombinant CHO cell membranes expressing human GlyT1; conditions: read-out: radioligand binding Kiapp
Procedure, shortened: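 Apparent Ki values were derived by Cheng-Prusoff from one-site IC50 fits of displacement curves. Membranes from recombinant CHO cells (human GlyT1c, 50 μg/ml) were incubated 1 h at room temperature with 0.5 nM [^3H]-(R)-NPTS and test compound (1% DMSO, pH 7.5 buffer), with 10 μM Org24598 for non-specific binding, then filtered and counted.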

human GlyT1c = human GlyT1c (Homo sapiens (Human), UniProt P48067); assay: [3H]-Glycine uptake into recombinant CHO cells expressing human GlyT1; format: cell-based; conditions: hGlyT1c_5_CHO cells, 200 nM [3H]-glycine
Experimental: [^3H]-Glycine uptake into recombinant CHO cells expressing human GlyT1: Human GlyT1c expressing recombinant hGlyT1c—5_CHO cells were plated at 20,000 cells per well in 96 well Cytostar-T scintillation microplates (Amersham Biosciences) and cultured to sub-confluency for 24 h. […] The plates were placed in a Wallac Microbeta (PerkinElmer) and continuously counted by solid phase scintillation spectrometry during up to 3 hours. […] IC50 calculations were made by four-parametric logistic nonlinear regression analysis (GraphPad Prism) using determinations within the range of linear increase of [^3H]-glycine incorporation between 60 and 120 min.

[1] = radioligand [3H]-(R)-NPTS (examples 1-19, 22-52, 54-87)

Sequence of human GlyT1c transporter (P48067 whole entry): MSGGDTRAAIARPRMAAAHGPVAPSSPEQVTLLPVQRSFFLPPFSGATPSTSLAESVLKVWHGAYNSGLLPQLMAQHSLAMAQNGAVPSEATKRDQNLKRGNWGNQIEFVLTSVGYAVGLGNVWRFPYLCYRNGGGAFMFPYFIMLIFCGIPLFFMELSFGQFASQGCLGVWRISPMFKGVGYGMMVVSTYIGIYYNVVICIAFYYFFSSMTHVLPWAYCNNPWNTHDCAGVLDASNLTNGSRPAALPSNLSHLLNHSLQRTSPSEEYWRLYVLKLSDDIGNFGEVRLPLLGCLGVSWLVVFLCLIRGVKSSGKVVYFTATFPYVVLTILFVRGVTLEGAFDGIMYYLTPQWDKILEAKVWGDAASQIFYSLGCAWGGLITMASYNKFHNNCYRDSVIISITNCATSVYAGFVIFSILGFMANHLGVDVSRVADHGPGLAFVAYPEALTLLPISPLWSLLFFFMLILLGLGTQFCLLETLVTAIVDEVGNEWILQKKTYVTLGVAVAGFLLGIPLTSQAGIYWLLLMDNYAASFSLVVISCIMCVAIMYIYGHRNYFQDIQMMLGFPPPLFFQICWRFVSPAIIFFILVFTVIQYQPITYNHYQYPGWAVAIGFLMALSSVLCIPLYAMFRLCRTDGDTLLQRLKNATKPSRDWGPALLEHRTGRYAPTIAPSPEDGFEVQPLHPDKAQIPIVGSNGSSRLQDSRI
Sequence of human GlyT1c (P48067 whole entry): as above

| SMILES | Ki (human GlyT1c transporter; examples 88-204, radioligand not specified by footnote) [nM] | IC50 (human GlyT1c) [nM] | Ki (human GlyT1c transporter; [1]) [nM] | IC50 (human GlyT1c; hydrochloride) [nM] |
| --- | --- | --- | --- | --- |
| O=C(NCCOc1ccc2c(c1)C(C1(c3ccc(Cl)cc3)CCC1)NCC2)c1ccc(Cl)cc1Cl (stereo not shown) [Example 1, 2,4-Dichloro-N-(2-{1-[1-(4-chloro-phenyl)-cyclobutyl]-1,2,3,4-tetrahydro-isoquinolin-7-yloxy}-ethyl)-benzamide] |  | ≤ 10000 | ≤ 10000 |  |
| CCCS(=O)(=O)NCCOc1ccc2c(c1)C(C1(c3ccc(Cl)cc3)CCC1)NCC2 (stereo not shown) [Example 4, Propane-1-sulfonic acid (2-{1-[1-(4-chloro-phenyl)-cyclobutyl]-1,2,3,4-tetrahydro-isoquinolin-7-yloxy}-ethyl)-amide hydrochloride] |  | ≤ 100 | ≤ 100 |  |
| CCS(=O)(=O)NCCOc1ccc2c(c1)C(C1(c3ccc(Cl)cc3)CCC1)NCC2 (stereo not shown) [Example 7, Ethanesulfonic acid (2-{1-[1-(4-chloro-phenyl)-cyclobutyl]-1,2,3,4-tetrahydro-isoquinolin-7-yloxy}-ethyl)-amide hydrochloride] |  | ≤ 100 | ≤ 100 |  |
| O=S(=O)(NCCOc1ccc2c(c1)C(C1(c3ccc(Cl)cc3)CCC1)NCC2)c1ccc2ccccc2c1 (stereo not shown) [Example 9, Naphthalene-2-sulfonic acid (2-{1-[1-(4-chloro-phenyl)-cyclobutyl]-1,2,3,4-tetrahydro-isoquinolin-7-yloxy}-ethyl)-amide hydrochloride] |  | ≤ 10000 | ≤ 10000 |  |
| O=S(=O)(NCCOc1ccc2c(c1)C(C1(c3ccc(Cl)cc3)CCC1)NCC2)c1cccnc1 (stereo not shown) [Example 10, Pyridine-3-sulfonic acid (2-{1-[1-(4-chloro-phenyl)-cyclobutyl]-1,2,3,4-tetrahydro-isoquinolin-7-yloxy}-ethyl)-amide hydrochloride] |  |  | ≤ 100 | ≤ 100 |
| O=S(=O)(NCCOc1ccc2c(c1)C(C1(c3ccc(Cl)cc3)CCC1)NCC2)C(F)(F)F (stereo not shown) [Example 11, N-(2-{1-[1-(4-Chloro-phenyl)-cyclobutyl]-1,2,3,4-tetrahydro-isoquinolin-7-yloxy}-ethyl)-C,C,C-trifluoro-methanesulfonamide] |  | ≤ 10000 | ≤ 10000 |  |
| O=S(=O)(NCCOc1cc2c(cc1F)CCNC2C1(c2ccc(Cl)cc2)CCC1)c1cccnc1 (stereo not shown) [Example 14, Pyridine-3-sulfonic acid (2-{1-[1-(4-chloro-phenyl)-cyclobutyl]-6-fluoro-1,2,3,4-tetrahydro-isoquinolin-7-yloxy}-ethyl)-amide hydrochloride] |  | ≤ 100 | ≤ 100 |  |
| CCCS(=O)(=O)NCCOc1cc2c(cc1F)CCNC2C1(c2ccc(Cl)cc2)CCC1 (stereo not shown) [Example 15, Propane-1-sulfonic acid (2-{1-[1-(4-chloro-phenyl)-cyclobutyl]-6-fluoro-1,2,3,4-tetrahydro-isoquinolin-7-yloxy}-ethyl)-amide hydrochloride] |  | ≤ 100 | ≤ 100 |  |
| COc1ccccc1S(=O)(=O)NCCOc1ccc2c(c1)C(C1(c3ccc(Cl)cc3)CCC1)NCC2 (stereo not shown) [Example 18, N-(2-{1-[1-(4-Chloro-phenyl)-cyclobutyl]-1,2,3,4-tetrahydro-isoquinolin-7-yloxy}-ethyl)-2-methoxy-benzenesulfonamide hydrochloride] |  | ≤ 1000 | ≤ 10000 |  |
| COc1cccc(S(=O)(=O)NCCOc2ccc3c(c2)C(C2(c4ccc(Cl)cc4)CCC2)NCC3)c1 (stereo not shown) [Example 19, N-(2-{1-[1-(4-Chloro-phenyl)-cyclobutyl]-1,2,3,4-tetrahydro-isoquinolin-7-yloxy}-ethyl)-3-methoxy-benzenesulfonamide hydrochloride] |  | ≤ 10000 | ≤ 10000 |  |
| O=S(=O)(NCCOc1ccc2c(c1)C(C1(c3ccc(Cl)cc3)CCC1)NCC2)c1ccc(-c2ccon2)s1 (stereo not shown) [Example 22, 5-Isoxazol-3-yl-thiophene-2-sulfonic acid (2-{1-[1-(4-chloro-phenyl)-cyclobutyl]-1,2,3,4-tetrahydro-isoquinolin-7-yloxy}-ethyl)-amide hydrochloride] |  | ≤ 10000 | ≤ 100000 |  |
| N#Cc1ccccc1S(=O)(=O)NCCOc1ccc2c(c1)C(C1(c3ccc(Cl)cc3)CCC1)NCC2 (stereo not shown) [Example 23, N-(2-{1-[1-(4-Chloro-phenyl)-cyclobutyl]-1,2,3,4-tetrahydro-isoquinolin-7-yloxy}-ethyl)-2-cyano-benzenesulfonamide hydrochloride] |  | ≤ 10000 | ≤ 10000 |  |

Second part, led by results:

| Ki (human GlyT1c transporter; examples 88-204, radioligand not specified by footnote) [nM] | IC50 (human GlyT1c) [nM] | Ki (human GlyT1c transporter; [1]) [nM] | SMILES | IC50 (human GlyT1c; hydrochloride) [nM] |
| --- | --- | --- | --- | --- |
| ≤ 100 | ≤ 10000 |  | NCCS(=O)(=O)NCCOc1ccc2c(c1)C(C1(c3ccc(Cl)cc3)CCC1)NCC2 (single isomer, unassigned) [Example 152, 2-Amino-N-[2-({1-[1-(4-Chlorophenyl)cyclobutyl]-1,2,3,4-tetrahydroisoquinolin-7-yl}oxy)ethyl]ethanesulfonamide dihydrochloride] |  |
|  | ≤ 100 | ≤ 100 | CS(=O)(=O)NCCOc1ccc2c(c1)C(C1(c3ccc(Cl)cc3)CCC1)NCC2 (stereo not shown) [Example 2, N-(2-{1-[1-(4-Chloro-phenyl)-cyclobutyl]-1,2,3,4-tetrahydro-isoquinolin-7-yloxy}-ethyl)-methanesulfonamide] |  |
|  | ≤ 100 | ≤ 100 | CC(C)CS(=O)(=O)NCCOc1ccc2c(c1)C(C1(c3ccc(Cl)cc3)CCC1)NCC2 (stereo not shown) [Example 8, 2-Methyl-propane-1-sulfonic acid (2-{1-[1-(4-chloro-phenyl)-cyclobutyl]-1,2,3,4-tetrahydro-isoquinolin-7-yloxy}-ethyl)-amide hydrochloride] |  |
|  | ≤ 100 | ≤ 1000 | CS(=O)(=O)NCCOc1cc2c(cc1F)CCNC2C1(c2ccc(Cl)cc2)CCC1 (stereo not shown) [Example 12, N-(2-{1-[1-(4-Chloro-phenyl)-cyclobutyl]-6-fluoro-1,2,3,4-tetrahydro-isoquinolin-7-yloxy}-ethyl)-methanesulfonamide hydrochloride] |  |
|  | ≤ 1000 | ≤ 1000 | O=S(=O)(NCCOc1cc2c(cc1F)CCNC2C1(c2ccc(Cl)cc2)CCC1)c1ccccc1 (stereo not shown) [Example 13, N-(2-{1-[1-(4-Chloro-phenyl)-cyclobutyl]-6-fluoro-1,2,3,4-tetrahydro-isoquinolin-7-yloxy}-ethyl)-benzenesulfonamide hydrochloride] |  |
|  | ≤ 100 | ≤ 100 | CCCCS(=O)(=O)NCCOc1ccc2c(c1)C(C1(c3ccc(Cl)cc3)CCC1)NCC2 (stereo not shown) [Example 16, Butane-1-sulfonic acid (2-{1-[1-(4-chloro-phenyl)-cyclobutyl]-1,2,3,4-tetrahydro-isoquinolin-7-yloxy}-ethyl)-amide hydrochloride] |  |
|  | ≤ 100 | ≤ 1000 | O=S(=O)(NCCOc1ccc2c(c1)C(C1(c3ccc(Cl)cc3)CCC1)NCC2)c1cccs1 (stereo not shown) [Example 17, Thiophene-2-sulfonic acid (2-{1-[1-(4-chloro-phenyl)-cyclobutyl]-1,2,3,4-tetrahydro-isoquinolin-7-yloxy}-ethyl)-amide hydrochloride] |  |
|  | ≤ 1000 | ≤ 10000 | N#Cc1ccc(S(=O)(=O)NCCOc2ccc3c(c2)C(C2(c4ccc(Cl)cc4)CCC2)NCC3)cc1 (stereo not shown) [Example 24, N-(2-{1-[1-(4-Chloro-phenyl)-cyclobutyl]-1,2,3,4-tetrahydro-isoquinolin-7-yloxy}-ethyl)-4-cyano-benzenesulfonamide hydrochloride] |  |
|  | ≤ 1000 | ≤ 1000 | O=S(=O)(NCCOc1ccc2c(c1)C(C1(c3ccc(Cl)cc3)CCC1)NCC2)c1ccccc1Cl (stereo not shown) [Example 25, 2-Chloro-N-(2-{1-[1-(4-chloro-phenyl)-cyclobutyl]-1,2,3,4-tetrahydro-isoquinolin-7-yloxy}-ethyl)-benzenesulfonamide hydrochloride] |  |
|  | ≤ 1000 | ≤ 10000 | O=S(=O)(NCCOc1ccc2c(c1)C(C1(c3ccc(Cl)cc3)CCC1)NCC2)c1cccc(Cl)c1 (stereo not shown) [Example 26, 3-Chloro-N-(2-{1-[1-(4-chloro-phenyl)-cyclobutyl]-1,2,3,4-tetrahydro-isoquinolin-7-yloxy}-ethyl)-benzenesulfonamide hydrochloride] |  |
|  | ≤ 1000 | ≤ 1000 | O=S(=O)(NCCOc1ccc2c(c1)C(C1(c3ccc(Cl)cc3)CCC1)NCC2)c1ccc(Cl)cc1 (stereo not shown) [Example 27, 4-Chloro-N-(2-{1-[1-(4-chloro-phenyl)-cyclobutyl]-1,2,3,4-tetrahydro-isoquinolin-7-yloxy}-ethyl)-benzenesulfonamide hydrochloride] |  |
|  | ≤ 100 | ≤ 100 | O=S(=O)(NCCOc1ccc2c(c1)C(C1(c3ccc(Cl)cc3)CCC1)NCC2)C1CC1 (stereo not shown) [Example 28, Cyclopropanesulfonic acid (2-{1-[1-(4-chloro-phenyl)-cyclobutyl]-1,2,3,4-tetrahydro-isoquinolin-7-yloxy}-ethyl)-amide hydrochloride] |  |
|  | ≤ 1000 | ≤ 1000 | O=S(=O)(NCCOc1ccc2c(c1)C(C1(c3ccc(Cl)cc3)CCC1)NCC2)c1ccc(Cl)nc1 (stereo not shown) [Example 29, 6-Chloro-pyridine-3-sulfonic acid (2-{1-[1-(4-chloro-phenyl)-cyclobutyl]-1,2,3,4-tetrahydro-isoquinolin-7-yloxy}-ethyl)-amide hydrochloride] |  |
|  | ≤ 1000 | ≤ 10000 | O=S(=O)(NCCOc1ccc2c(c1)C(C1(c3ccc(Cl)cc3)CCC1)NCC2)c1cccc2cccnc12 (stereo not shown) [Example 30, Quinoline-8-sulfonic acid (2-{1-[1-(4-chloro-phenyl)-cyclobutyl]-1,2,3,4-tetrahydro-isoquinolin-7-yloxy}-ethyl)-amide hydrochloride] |  |
